In PMC12501849, “Design, synthesis and evaluation of arylpurine-based sinefungin mimetics as zika virus methyltransferase inhibitors” (RSC Advances, 2025):
“Also recorded” adds a separate entry of the source.

How the values were obtained:
ZIKV MTase = target: T1, ZIKV MTase (Zika virus, UniProt A0A024B7W1); assay: Filter binding assay (FBA), ZIKV 2′-O-MTase activity; format: biochemical; settings: for inhibition at 50 µM: 2′-O-MTase activity, compound at 50 μM, read-out: Percentage of inhibition of ZIKV MTase; for Effect on 2′-O-MTase activity of ZIKV (in words): tested at 50 μM
T1 construct: the ZIKV NS5 MTase (aa 4-278) domain were synthesized (Genscript); His6 (N); made in house; host or cells: Escherichia coli T7 Express Iq
T1 sequence (A0A024B7W1 2524-2798): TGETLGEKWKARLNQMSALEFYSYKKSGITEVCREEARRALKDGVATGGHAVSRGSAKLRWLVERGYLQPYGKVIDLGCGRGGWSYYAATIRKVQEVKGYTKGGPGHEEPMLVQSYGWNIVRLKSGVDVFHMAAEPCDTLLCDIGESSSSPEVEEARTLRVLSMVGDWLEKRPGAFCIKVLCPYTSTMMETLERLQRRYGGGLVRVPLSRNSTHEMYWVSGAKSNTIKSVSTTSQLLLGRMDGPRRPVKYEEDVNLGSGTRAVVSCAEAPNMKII
Experimental: (§1) The synthesized arylpurines were evaluated for their inhibitory activity against the 2′-O-MTase activity of ZIKV and DENV3 MTases by quantification of [^3H]-methyl transfer from the [^3H]-SAM on short synthetic capped RNA (GpppAC4), by using a filter binding assay (FBA).[13,33] The universal methyltransferase inhibitor sinefungin was included as a positive control (Table 1), whose IC50 value against ZIKV MTase has already been reported using a similar assay.[13] We assessed MTase inhibition by testing the synthesized compounds at a concentration of 50 μM.
(§2) Proteins were produced and purified as previously described.[13] Briefly, the coding sequence of ZIKV NS5 (aa 4-903) and the ZIKV NS5 MTase (aa 4-278) domain were synthesized (Genscript) based on the sequence of the ZIKV strain H/PF/2013 (GenBank accession no. KJ776791.2) and then cloned into a pQE30 (Qiagen) plasmid with an N-terminal His6 tag. The MTase domains (aa 4-278 and aa 1-264) were produced in Escherichia coli T7 Express Iq (New England BioLabs). Cells were grown in Terrific Broth at 37 °C until the optical density at 600 nm (OD600) reached 0.6. Protein expression was then induced by 0.5 mM IPTG (isopropyl-β-D-thiogalactopyranoside) at 17 °C overnight. Bacteria were harvested by centrifugation. The bacterial pellets from a 2-liter bacterial culture were resuspended in 100 ml lysis buffer (50 mM Tris–HCl [pH 8], 300 mM NaCl, 5% glycerol, 0.1% Triton, 10 μg per ml DNase I, 2 tablets of EDTA-free antiprotease cocktail [Roche], 0.25 mg per ml lysozyme). After 30 min of incubation at 4 °C, cells were sonicated and clarified by centrifugation prior to immobilized metal affinity chromatography (IMAC) purification on a 5-mL His prep column (GE Healthcare), with elution in 50 mM Tris–HCl, 300 mM NaCl, and 250 mM imidazole (pH 8.0). The eluted protein was then loaded on a 16/60 Superdex 200 (GE Healthcare) equilibrated in a mixture of 10 mM HEPES, 500 mM NaCl, glycerol 5%, and 1 mM dithiothreitol (DTT [pH 7.5]).
(§3) The FBA MTase assay was carried out in a reaction mixture [40 mM Tris–HCl (pH 8.0), 1 mM DTT, 1.9 μM SAM, and 0.1 μM ^3H-SAM (PerkinElmer)] in the presence of 0.7 μM GpppAC4 synthetic RNA and the MTase (500 nM), according to the method previously described.[39] Briefly, the MTase was first mixed with the compound suspended in DMSO (5% final DMSO) before the addition of RNA substrate and SAM and then incubated at 30 °C. Reactions mixtures were stopped after 30 min by their 10-fold dilution in ice-cold water. Samples were transferred to diethylaminoethyl (DEAE) filtermat (PerkinElmer) using a Filtermat Harvester (Packard Instruments). The RNA-retaining mats were washed twice with 10 mM ammonium formate pH 8.0, twice with water and once with ethanol. They were soaked with scintillation fluid (PerkinElmer), and ^3H-methyl transfer to the RNA substrates was determined using a Wallac MicroBeta TriLux liquid scintillation counter (PerkinElmer).

DENV3 MTase = target: T2, DENV3 MTase (Dengue virus type 3, UniProt P27915); assay: Filter binding assay (FBA), DENV3 2′-O-MTase activity; format: biochemical; settings: for inhibition at 50 µM: 2′-O-MTase activity, compound at 50 μM, read-out: Percentage of inhibition of DENV3 MTase; for Effect on 2′-O-MTase activity of DENV3 (in words): tested at 50 μM
T2 construct: the MTase activity is located at the N-terminal of the viral NS5 protein; made in house
T2 sequence (P27915 2492-2753): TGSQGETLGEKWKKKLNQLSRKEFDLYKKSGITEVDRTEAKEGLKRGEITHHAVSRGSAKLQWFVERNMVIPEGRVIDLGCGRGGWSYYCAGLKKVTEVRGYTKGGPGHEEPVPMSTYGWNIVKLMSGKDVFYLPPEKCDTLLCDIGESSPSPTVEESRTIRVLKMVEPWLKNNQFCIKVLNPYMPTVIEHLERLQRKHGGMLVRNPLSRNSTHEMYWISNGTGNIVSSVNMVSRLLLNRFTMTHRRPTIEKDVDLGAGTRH
Experimental: as §1, §2, §3

ZIKV = assay: Antiviral assay against ZIKV in VeroE6 cells (CPE, MTS readout); format: cell-based, zika virus; settings: for EC50: Zika virus, Vero C1008, VeroE6 cells, concentration that protects 50% of the cells from virus-induced cytopathic effect; for Antiviral activity against ZIKV (in words): cell-based assay
Experimental: (§4) These compounds were next evaluated for their antiviral effect on ZIKV replication in Vero E6 and SH-SY5Y cells. 7-Deaza-2′-C-methyladenosine (7DMA), a viral polymerase inhibitor,[35] was included as a positive control.
(§5) Assessment of the antiviral activity against ZIKV in VeroE6 cells (African green monkey kidney cells; Vero 76, clone E6; ATCC: Cat# CRL-1586) was done as previously described.[35] The antiviral assays in the neuroblastoma SH-SY5Y cells (CRL-2266; ATCC) were conducted as follows: SH-SY5Y cells were seeded in assay medium (MEM supplemented with 2% fetal bovine serum, 2 mM L-glutamine and 0.075% sodium bicarbonate; all from Thermo Fisher Scientific) at a density of 15 000 cells/well in 96-well plates. Cells were incubated overnight at 37 °C and 5% CO2. The next day, a serial dilution of the compounds was added to the cells, followed by inoculation of the cells with ZIKV MR766 (MOI = 0.01). Following a 7-day incubation at 37 °C and 5% CO2, ZIKV-induced cytopathic effect was determined by means of the MTS readout method, analogous to the assay with the VeroE6 cells.[35] The 50% effective concentration (the compound concentration that is required to inhibit virus-induced CPE by 50%; EC50) and the 50% cytotoxic concentration (i.e. the compound concentration that is required to inhibit the cell growth by 50%; CC50) was determined using logarithmic interpolation.

[1] = Cytotoxicity in non-infected VeroE6 cells; format: cell-based, African green monkey; settings: African green monkey, non-infected, 50% cytotoxic concentration
Experimental: as §5

ZIKV MR766 = assay: Antiviral assay against ZIKV in SH-SY5Y cells (CPE, MTS readout); format: cell-based, zika virus; settings: Zika virus, 168 h; SH-SY5Y cells; ZIKV MR766, MOI 0.01, 7-day incubation
Experimental: as §4
Besides the standard assays in VeroE6 cells, the compounds were also tested in SH-SY5Y cells. […] Thus, they function as a relevant neuronal cell-based model of ZIKV infection.[38]
as §5

[2] = Cytotoxicity in non-infected SH-SY5Y cells; format: cell-based; settings: human, SH-SY5Y neuroblastoma cells, 50% cytotoxic concentration
Experimental: as §5

[3] = Stability towards spontaneous cyclization in PBS : DMSO followed by HPLC; format: physicochemical; settings: PBS : DMSO (95 : 5), HPLC over a 24-hour period
Experimental: Then, compound 28 was treated with TFA at 70 °C to remove the tert-butyl ester and the p-methoxybenzyl group. Analysis of the reaction by HPLC/MS after 1 h indicated a mixture of two compounds with m/z = 695 and m/z = 575, that might correspond to cyclized products with and without the p-methoxybenzyl group at position 6 (see Fig. S3 at the SI). […] In exploring alternative methods for removing the PMB group, we came across a report by Sako et al., which described the oxidative debenzylation of 6-N-benzyladenosines under neutral pH conditions.[32] Since our compounds are more lipophilic than the nucleosides described by […], we changed the PBS : CH3CN ratio from 2 : 1, as described, to 1 : 1 to favor the solubility of our compounds. Additionally, we used microwave irradiation to shorten the reaction times. Thus, treatment of 27 with […] in PBS : CH3CN (1 : 1) at 80 °C for 45 min under MW irradiation led to the removal of the p-methoxybenzyl group, as detected by HPLC/MS. Further treatment of the reaction product with piperidine afforded 29 (25% yield over the 2 steps). A similar reaction sequence applied to 28 led to compound 30 (21% yield). […] Finally, treatment of 29 and 30 with TFA in DCM at rt afforded compounds 31 and 32 in 73% and 62% yields, respectively. To rule out the possibility of spontaneous cyclization following removal of both protecting groups from the amino acid, compounds 21, 31 and 32 were dissolved in a PBS : DMSO (95 : 5) mixture.

Row | Compound | inhibition at 50 µM (ZIKV MTase) [%] | Effect on 2′-O-MTase activity of ZIKV (in words) (ZIKV MTase) | inhibition at 50 µM (DENV3 MTase) [%] | Effect on 2′-O-MTase activity of DENV3 (in words) (DENV3 MTase) | EC50 (ZIKV) [µM] | CC50 [1] [µM] | EC50 (ZIKV MR766) [µM] | CC50 at 7 days [2] [µM] | Stability (no spontaneous cyclization) [3] | Antiviral activity against ZIKV (in words) (ZIKV)
1 | COc1ccc(NC(=O)C[C@H](N)C(=O)O)cc1-n1cnc2c(N)ncnc21 [Compound 32, N ^4-(3-(6-Amino-9H-purin-9-yl)-4-methoxyphenyl)-L-asparagine] | 0 | no effect | 0 | no effect | > 100 | > 100 | > 100 | > 100 | remained intact | –
2 | CC(C)(C)OC(=O)[C@@H](N)CC(=O)Nc1cccc(-n2cnc3c(N)ncnc32)c1 [Compound 29, tert-Butyl N^4-(3-(6-amino-9H-purin-9-yl)phenyl)-L-asparaginate] | ~20 | inhibited; also recorded: some inhibition | ~20 | some inhibition | > 100 | > 100 | > 100 | > 100 | – | no antiviral activity
3 | Nc1ncnc2c1ncn2-c1cccc(NC(=O)C[C@H](N)C(=O)O)c1 [Compound 31, N ^4-(3-(6-Amino-9H-purin-9-yl)phenyl)-L-asparagine] | ~20 | inhibited; also recorded: some inhibition | ~20 | some inhibition | > 100 | > 100 | > 100 | > 100 | remained intact | no antiviral activity
4 | COc1ccc(NC(=O)C[C@H](N)C(=O)OC(C)(C)C)cc1-n1cnc2c(N)ncnc21 [Compound 30, tert-Butyl N^4-(3-(6-amino-9H-purin-9-yl)-4-methoxyphenyl)-L-asparaginate] | 0 | no effect | 0 | no effect | > 100 | > 100 | > 100 | > 100 | – | –
5 | C[C@@]1(O)[C@H](O)[C@@H](CO)O[C@H]1n1ccc2c(N)ncnc21 [Compound 7DMA, 7-Deaza-2′-C-methyladenosine, reference compound] | – | – | – | – | 9 ± 0.2 | > 200 | 33.7 ± 5.1 | > 50 | – | –
6 | Cc1ncnc2c1ccn2-c1cccc(N(CC[C@H](NC(=O)OC(C)(C)C)C(N)=O)CCC(C)(C)C)c1 [Compound 17, tert-Butyl (S)-(1-amino-4-((3,3-dimethylbutyl)(3-(4-methyl-7H-pyrrolo[2,3-d]pyrimidin-7-yl)phenyl)amino)-1-oxobutan-2-yl)carbamate] | 11.1 | modest inhibition | 7.2 | modest inhibition | > 100 | 22.8 ± 0.5 | > 100 | 7 | – | –
7 | Cc1ncnc2c1ccn2-c1cccc(N(CC[C@H](N)C(=O)O)CCC(C)(C)C)c1 [Compound 14, (S)-2-Amino-4-((3,3-dimethylbutyl)(3-(4-methyl-7H-pyrrolo[2,3-d]pyrimidin-7-yl)phenyl)amino)butanoic acid] | 0 | no effect | 0 | no effect | > 100 | > 100 | > 100 | > 100 | – | –
8 | Cc1ncnc2c1ccn2-c1cccc(NC(=O)C[C@H](N)C(=O)OC(C)(C)C)c1 [Compound 20, tert-Butyl N^4-(3-(4-methyl-7H-pyrrolo[2,3-d]pyrimidin-7-yl)phenyl)-L-asparaginate] | 0 | no effect | 0 | no effect | > 100 | > 33 | > 100 | > 100 | – | –
9 | Cc1ncnc2c1ccn2-c1cccc(NC(=O)C[C@H](N)C(=O)O)c1 [Compound 21, N ^4-(3-(4-Methyl-7H-pyrrolo[2,3-d]pyrimidin-7-yl)phenyl)-L-asparagine] | 0 | no effect | 0 | no effect | > 100 | > 100 | > 100 | > 100 | remained intact | –
10 | CC(C)(C)CCN(CC[C@H](N)C(=O)O)c1cccc(-n2cnc3c(N)ncnc32)c1 [Compound 10, (S)-2-Amino-4-((3-(6-amino-9H-purin-9-yl)phenyl)(3,3-dimethylbutyl)amino)butanoic acid] | 0 | no effect | 0 | no effect | > 100 | > 100 | > 100 | > 100 | – | –
